Measurements taken from PubChem BioAssay (NCI).
Where “and” joins values, the source holds several entries; their conditions need not be identical. Equal values may be shown once.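 Dose response: 5 concentrations. Exposure: 48 h. Format: 96-well plates. Endpoint: linear interpolation; highest concentration if not reached. TGI is the concentration that stops growth completely.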

Legend:
Assay in all cases: NCI tumour cell line growth inhibition, 48 h
RPMI-8226 leukemia = test system: RPMI-8226 leukemia
IGROV1 ovarian = test system: IGROV1 ovarian
HCC-2998 colon = test system: HCC-2998 colon
NCI-H23 lung = test system: NCI-H23 lung
HL-60(TB) leukemia = test system: HL-60(TB) leukemia
EKVX NSCLC = test system: EKVX NSCLC
SK-MEL-5 melanoma = test system: SK-MEL-5 melanoma
OVCAR-5 ovarian = test system: OVCAR-5 ovarian
CCRF-CEM leukemia = test system: CCRF-CEM leukemia
MOLT-4 leukemia = test system: MOLT-4 leukemia

| Structure (SMILES) | TGI (RPMI-8226 leukemia) | TGI (IGROV1 ovarian) | TGI (HCC-2998 colon) [µM] | TGI (NCI-H23 lung) | TGI (HL-60(TB) leukemia) | TGI (EKVX NSCLC) | TGI (SK-MEL-5 melanoma) | TGI (OVCAR-5 ovarian) | TGI (CCRF-CEM leukemia) | TGI (MOLT-4 leukemia) |
| --- | --- | --- | --- | --- | --- | --- | --- | --- | --- | --- |
| CCC(NC(C)c1ccccc1)C(=O)c1ccc(OCc2ccccc2)c(OCc2ccccc2)c1 (configuration not stated) | > 100 µM | > 100 µM | > 100 | > 100 µM | > 100 µM | > 100 µM | > 100 µM | > 100 µM |  |  |
| CC(=O)OI1NC(=O)c2ccccc21 | > 100 µM | > 100 µM |  | > 100 µM | > 100 µM | > 100 µM | > 100 µM | > 100 µM | > 100 µM | > 100 µM |
| Cc1c(O)c(=O)ccn1CCN | > 100 µM | > 100 µM | > 100 | > 100 µM |  | > 100 µM |  | > 100 µM | > 100 µM | > 100 µM |
| CSc1ncnc2c1cnn2Cc1cn(COCCO)nn1 | > 100 µM | > 100 µM | > 100 | > 100 µM | > 100 µM |  | > 100 µM | > 100 µM | > 100 µM |  |
| CC1=C(c2nc3ccccc3s2)C(=O)OC1(C)C | > 100 µM |  | > 100 | > 100 µM |  | > 100 µM | > 100 µM | > 100 µM | > 100 µM | > 100 µM |
| CSc1nc(=S)[nH]c2c1c(C)nn2-c1ccccc1 | 47.7 µM |  | > 100 | 45.8 µM | > 100 µM | 46.6 µM | 27.8 µM | > 100 µM | 49 µM | 45.3 µM |
| CC1=CC(=O)CC2(C)CCC(C(C)CC(=O)CC(C)C)CC12OO (configuration not stated) | 76.5 µM and 46.1 µM | 46.6 µM and 31 µM |  | 39.8 µM and 54.9 µM | 74.7 µM and 17.4 µM | 36.8 µM and 34.3 µM | 35.5 µM and 30.3 µM | 35.5 µM and 47.5 µM | 59.8 µM and 46.6 µM | 40.2 µM and 35.3 µM |
| COC(=O)C1CC2C=CC=CC(=O)C2(C)C1 (configuration not stated) | 59.5 µM | > 100 µM |  | > 100 µM | 55.1 µM | > 100 µM | > 100 µM | > 100 µM | 71.8 µM | > 100 µM |
| COc1ccc(C2=Nc3c(nc(OC)[nH]c3=O)NC(c3ccccc3)C2)cc1 (configuration not stated) | 91.5 µM | > 100 µM |  | > 100 µM | 56.9 µM | > 100 µM | 33.7 µM | > 100 µM | > 100 µM | > 100 µM |
| O=C(NCCN1CCCCC1)c1ccc(Br)cc1 | > 100 µM | > 100 µM | > 100 | > 100 µM | > 100 µM | > 100 µM | > 100 µM | > 100 µM |  | > 100 µM |
| O=C1CN(c2ccccc2)Cc2nc(Cl)ccc2N1 | > 100 µM | > 100 µM | > 100 |  | > 100 µM | > 100 µM | > 100 µM | > 100 µM | > 100 µM | > 100 µM |
| Brc1ccc(C2C3CSc4ccccc4C3=NN2c2ccccc2)cc1 (configuration not stated) | > 100 µM | > 100 µM |  | > 100 µM | > 100 µM |  | > 100 µM |  | > 100 µM | > 100 µM |
| COc1ccc(N2C(=O)c3c(c4[nH]c5ccccc5c4c4ccc(C(C)(C)C)cc34)C2=O)cc1 |  | > 100 µM | > 100 | 51 µM |  | > 100 µM | > 100 µM | > 100 µM | 42.1 µM | 52 µM |
| CC(C)Oc1c(C2(c3ccccc3)SCCCS2)c(=O)c1=O |  | > 100 µM |  | > 100 µM | > 100 µM | > 100 µM | > 100 µM | > 100 µM | > 100 µM | > 100 µM |
| C1CNOCCCONCCCNOCCCONC1 |  | > 100 µM |  | > 100 µM | > 100 µM | > 100 µM | > 100 µM | > 100 µM | > 100 µM | > 100 µM |
| CC(C)OC(=O)c1ccc(NCc2cc(O)ccc2O)cc1 |  | 15 µM | 28.6 | 18 µM | 1.62 µM | 17.5 µM | 10.8 µM | 15.9 µM | > 100 µM | 10.3 µM |
| O=Cc1c[nH]c2c(=O)[nH]cnc12 | > 100 µM | > 100 µM | > 100 | > 100 µM | > 100 µM | > 100 µM | > 100 µM |  | > 100 µM | > 100 µM |
| C#CC[C@@H]1C(=O)N(Cc2ccc(OC)cc2)[C@@H](C(C)C)C(=O)N1Cc1ccc(OC)cc1 |  | > 100 µM | > 100 | > 100 µM | 8.53 µM | 69 µM | 30.3 µM | > 100 µM | 36.2 µM | 34.7 µM |
| CO/C(N)=C(\C#N)N=Cc1ccc2ccccc2c1 | > 100 µM | > 100 µM |  | > 100 µM | 15.6 µM | > 100 µM | > 100 µM |  | > 100 µM | > 100 µM |
| CC(C)(C)N=CN1C=Cc2nc3ccccc3cc2C1 |  | > 100 µM | > 100 | > 100 µM | > 100 µM | > 100 µM | > 100 µM | > 100 µM | > 100 µM | > 100 µM |
| Cn1c(=O)c2[nH]c(N=O)nc2n(C)c1=O | > 100 µM | > 100 µM | > 100 | > 100 µM | > 100 µM | > 100 µM |  | > 100 µM |  | > 100 µM |
| CCOC(=O)N/N=C(/N)c1cccc(Br)c1 |  | > 100 µM | > 100 | > 100 µM | > 100 µM | > 100 µM | > 100 µM | > 100 µM | > 100 µM | > 100 µM |
| CC(C)(C)OC(=O)NC1CCCC1C(=O)C1=CCCC1 (configuration not stated) | > 100 µM | > 100 µM | > 100 | > 100 µM | > 100 µM |  | > 100 µM | > 100 µM | > 100 µM | > 100 µM |
| CCOC(=O)c1c2ccc(/C=C/c3ccccn3)ccc-2c(C(=O)OCC)c1N |  | > 100 µM | > 100 | > 100 µM | > 100 µM | > 100 µM | > 100 µM | > 100 µM | > 100 µM | > 100 µM |
| CCOC1OC(CO)C(O)CC1n1ccc(=O)[nH]c1=O (configuration not stated) | > 100 µM | > 100 µM | > 100 | > 100 µM |  | > 100 µM | > 100 µM | > 100 µM |  |  |
